Reference: PubChem BioAssay (NCI)
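Results reflect a 48-hour exposure of cells in 96-well plates to compound at five concentrations. Here, GI50 denotes the concentration required for 50% inhibition of growth. TGI marks complete inhibition of growth.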

Legend:
Experiment in all cases: NCI anticancer screen, dose series, 48 h
SW-620 colon = tested on: SW-620 colon
NCI-H522 lung = tested on: NCI-H522 lung
IGROV1 ovarian = tested on: IGROV1 ovarian
HOP-92 NSCLC = tested on: HOP-92 NSCLC
CCRF-CEM leukemia = tested on: CCRF-CEM leukemia
UACC-62 melanoma = tested on: UACC-62 melanoma
MALME-3M melanoma = tested on: MALME-3M melanoma
TK-10 renal = tested on: TK-10 renal
OVCAR-3 ovarian = tested on: OVCAR-3 ovarian
HS 578T breast = tested on: HS 578T breast

Row | Structure (SMILES) | TGI (SW-620 colon) [µM] | TGI (NCI-H522 lung) [µM] | TGI (IGROV1 ovarian) [µM] | TGI (HOP-92 NSCLC) [µM] | TGI (CCRF-CEM leukemia) [µM] | TGI (UACC-62 melanoma) [µM] | TGI (MALME-3M melanoma) [µM] | TGI (TK-10 renal) [µM] | TGI (OVCAR-3 ovarian) [µM] | GI50 (SW-620 colon) [µM] | GI50 (NCI-H522 lung) [µM] | GI50 (HS 578T breast) [µM] | TGI (HS 578T breast) [µM] | GI50 (IGROV1 ovarian) [µM] | GI50 (HOP-92 NSCLC) [µM] | GI50 (OVCAR-3 ovarian) [µM] | GI50 (CCRF-CEM leukemia) [µM] | GI50 (UACC-62 melanoma) [µM] | GI50 (TK-10 renal) [µM] | GI50 (MALME-3M melanoma) [µM]
1 | Cc1c2cc[n+](C)cc2c(C)c2c1[nH]c1ccc(OC(C)(C)C)cc12 | > 100 | > 100 | > 100 | > 100 | > 100 | > 100 | > 100 | > 100 | – | – | – | – | – | – | – | – | – | – | – | –
2 | Clc1cc2ns[s+]c2cc1Cl | > 100 | > 80.5 | > 100 | > 100 | > 100 | > 100 | > 100 | 98.9 | > 100 | – | – | – | – | – | – | – | – | – | – | –
3 | Cc1cc(NCCCCCCCCNc2cc(C)nc3cc(N(C)C)ccc23)c2ccc(N(C)C)cc2n1 | 87.6 | 12.9 | – | 8.04 | 49.1 | – | – | – | 18.4 | – | – | – | – | – | – | – | – | – | – | –
4 | CN1C(=O)CC(CC(=O)C2CCCCC2=O)CC1=O (stereo not given) | > 100 | > 100 | > 100 | > 100 | > 100 | > 100 | > 100 | > 100 | > 100 | – | – | – | – | – | – | – | – | – | – | –
5 | Cc1cc(S(=O)(=O)Nc2nc3ccccc3s2)c(SCc2ccccc2)cc1Cl | 37.6 | > 100 | 94.3 | 43.6 | 51.3 | 27.9 | – | 44.7 | 23.3 | 18.8 | 31.5 | 20.2 | 62 | 27.4 | 11.8 | 8 | 13.1 | 10.8 | 14.1 | –
6 | COc1ccc(NC(=O)CC2SC(=Nc3ccc(Cl)cc3C)NC2=O)c([N+](=O)[O-])c1 (stereo not given) | > 100 | > 100 | > 100 | > 100 | > 100 | > 100 | > 100 | > 100 | > 100 | – | – | – | – | – | – | – | – | – | – | –
7 | CCCCCCCCCCCCCC(=O)OCC1OC(=O)C(O)C1O (stereo not given) | > 100 | > 100 | > 100 | > 100 | > 100 | > 100 | > 100 | > 100 | > 100 | – | – | – | – | – | – | – | – | – | – | –
8 | COC(=O)/C(=C1\OC(=O)C(c2ccc(Cl)cc2)=C1O)c1ccc(Cl)cc1 | > 100 | 50.4 | > 100 | 50.4 | > 100 | 56.9 | 55.7 | 75.5 | 87.6 | – | – | – | – | – | – | – | – | – | – | –
9 | O=C1/C(=C/c2ccc(C(=O)O)cc2)CNC/C1=C\c1ccc(C(=O)O)cc1 | – | – | > 100 | > 100 | > 100 | > 100 | > 100 | > 100 | > 100 | – | – | – | – | – | – | – | – | – | – | –
10 | O=S1c2ccccc2N=C(c2cccs2)CC1c1ccccc1O (stereo not given) | > 100 | > 100 | > 100 | – | > 100 | > 100 | > 100 | > 100 | > 100 | – | – | – | – | – | – | – | – | – | – | –
11 | C/C(COc1ccccc1)=N\NC(N)=S | > 100 | – | > 100 | > 100 | > 100 | > 100 | > 100 | > 100 | > 100 | – | – | – | – | – | – | – | – | – | – | –
12 | NC1=NN(c2ccccc2)C(=O)C1/C(=N\NC(=O)c1cc2ccccc2cc1O)C(=O)Nc1ccc(Cl)c(Cl)c1 (stereo not given) | > 100 | 37.2 | > 100 | 92 | 57.7 | 44.1 | 97.6 | > 100 | 54.8 | – | – | – | – | – | – | – | – | – | – | –
13 | CCN(CC(O)COc1ccc2c(c1)[n+]([O-])nc(N)[n+]2[O-])C(C)=O (stereo not given) | > 100 | > 100 | > 100 | – | > 100 | > 100 | – | > 100 | > 100 | – | – | – | > 100 | – | – | – | – | – | – | –
14 | CS(=O)(=O)Nc1cc(-c2ccc3ncnc(Nc4ccc(OCc5ccccn5)c(Cl)c4)c3c2)cnc1Cl | 10.5 | 2.35 | 0.409 | – | > 100 | 1.58 | 0.736 | 1.78 | 1.41 | 0.448 | 0.131 | – | – | 0.0748 | – | 0.217 | 0.217 | 0.264 | 0.23 | 0.0851
15 | Fc1ccc(Nc2ccnc(N3CCN(c4ccnc5cc(Cl)ccc45)CC3)n2)cc1 | 13.9 | 5.38 | 30.9 | – | 10.5 | 4.53 | – | – | 7.38 | 2.92 | 2.03 | 2.83 | 39 | 3.38 | – | 2.53 | 2.74 | 1.73 | – | –
16 | Cc1ccc(O)c(C(=O)/C=C/c2ccccc2)c1 | > 100 | > 100 | > 100 | > 100 | > 100 | > 100 | – | > 100 | > 100 | – | – | – | > 100 | – | – | – | – | – | – | –
